Results taken from patent publication US20160038588A1, “Myostatin Antagonism in Human Subjects” (AMGEN INC., priority 2013, published 2016).

How the values were obtained:
[1] = Clinical study: pharmacokinetics of AMG 745 after weekly SC doses; conditions: for AUC0-τ / Cmax / CL/F (apparent serum clearance, Dose/AUC Week 4): mean; for AUC0-τ: 7-day dosing interval; for Cmax: serum; for tmax: median
Protocol: This was a multicenter, randomized, double-blind, placebo-controlled, ascending-multiple-dose study in men with prostate cancer receiving ADT. The trial was designed to evaluate the safety, tolerability, PK, and pharmacodynamics of AMG 745.
Subcutaneous doses of 0.3 mg/kg, 1.0 mg/kg, and 3.0 mg/kg, were each administered once weekly for 4 weeks, and were evaluated in sequential cohorts. Eight subjects, randomized in a 3:1 allocation ratio to AMG 745 or placebo, were enrolled in the 0.3 mg/kg dose cohort and in the 1.0 mg/kg dose cohort. To evaluate safety, tolerability, PK and the effect of 4 weekly doses on lean body mass, a total of thirty-eight subjects were enrolled in the 3.0 mg/kg dose cohort, randomized in a 1:1 allocation ratio to AMG 745 or placebo.
The following procedures were performed pre-study and periodically during the study for all cohorts: physical examination, vital signs, electrocardiogram, hematology, chemistry, urinalysis, anti-AMG 745 antibody screen, and blood sample draws for PK. For the 3 mg/kg cohort DXA and lower extremity CT scans were conducted predose and on study day 29 (end of study) and at the one month follow-up visit. All DXA scans were performed on a Hologic or GE Lunar scanner. The same scanner was to be used for all visits for an individual subject. All DXA scans were sent to a central reading facility for review and analysis.
The pharmacokinetic analyses included all treated subjects for whom the pharmacokinetic parameters could be estimated. Pharmacokinetic parameters were estimated using noncompartmental methods. Summary statistics by dose cohort were generated for each pharmacokinetic parameter. Graphs of serum AMG 745 concentration-time profiles for individual subjects and the means for each dose were prepared.

[2] = tested on: anti-AMG 745 (whole molecule) binding antibodies; assay: Clinical study: anti-AMG 745 binding antibody immunoassays; format: in vivo, human; conditions: subjects who received AMG 745 (1/31)
Protocol: For the 54 subjects who completed the study serum samples were analysed by surface-plasmon-resonance-based biosensor immunoassays for anti-AMG 745 (whole molecule) binding antibodies. Samples from 2 subjects gave positive results in 1 or more of the immunoassays: […]

[3] = tested on: men with prostate cancer receiving ADT; assay: Clinical study: lower extremity strength (1-RM knee extension) and SPPB; format: in vivo, human; design: End of Study SPPB-Total Score, Mean / End of Study SPPB-Total Score, Median / Change from Baseline to End of Study SPPB-Total Score, Mean / Change from Baseline to End of Study SPPB-Total Score, Median / Follow-up SPPB-Total Score, Mean / Follow-up SPPB-Total Score, Median: scale not given here
Protocol: Lower extremity strength was assessed on the basis of maximum weight lifted for one repetition (1-RM) using a knee extension machine. This assessment was performed within 2 weeks prior to and/or up to Day 2, on Day 29, and at a 1 month follow-up visit.
Short Physical Performance Battery (SPPB) was conducted within 2 weeks prior to and/or up to Day 1, on Day 29, and at the 1 month follow-up visit. The SPPB included an assessment of standing balance, timed walk test, and five repetitions of chair stand.

[4] = tested on: men with prostate cancer receiving ADT; assay: Clinical study: pharmacodynamics (DXA lean and fat mass, CT lower extremity muscle size); format: in vivo, human
Protocol: Eligible subjects were men with a documented history of prostate cancer; no documented distant metastasis at time of enrollment; received ADT (androgen deprivation therapy) for at least 6 months as a primary, adjuvant, or salvage treatment for prostate cancer prior to enrollment; if ADT was being administered intermittently, serum total testosterone level <50 ng/dL at screening; a stable prostate-specific antigen (PSA) as determined by the investigator; no history of primary muscle disease, myopathy, or neuropathy; weight ≦137 kg (300 lbs) and height ≦78 inches; Eastern Cooperative Oncology Group (ECOG) performance status of 0 at screening; no clinically significant elevated creatine phosphokinase (CPK); glomerular filtration rate (GFR) >40 mL/min; aspartate aminotransferase (AST) or alanine aminotransferase (ALT)<2.5× upper limit of normal.
This planned enrollment assumed a between treatment group difference of 1.5% for the secondary endpoint, percent change in lean body mass from baseline to week 5 (standard deviation of 2.1; Smith et al. 2001), and provided 80% power for a 1-sided test at the 10% significance level. An analysis of variance (ANOVA) was used to compare percent change from baseline between treatment groups (3 mg/kg AMG 745 versus placebo).
Analyses of the pharmacodynamic effects were limited to the 3-mg/kg dose cohort and the study was designed to have 80% power to detect a statistically significant between-treatment-group difference in percent change in lean body mass.

[5] = Week 1 (Dose 1), 0.3 mg/kg SC once-weekly
[6] = Week 1 (Dose 1), 1 mg/kg SC once-weekly
[7] = Week 1 (Dose 1), 3 mg/kg SC once-weekly
[8] = Week 4 (Dose 4), 0.3 mg/kg SC once-weekly
[9] = Week 4 (Dose 4), 1 mg/kg SC once-weekly
[10] = Week 4 (Dose 4), 3 mg/kg SC once-weekly
[11] = 0.3 mg/kg SC 4-Week Dosing (N = 6)
[12] = 1.0 mg/kg SC 4-Week Dosing (N = 6)
[13] = 3.0 mg/kg SC 4-Week Dosing (N = 19)
[14] = 3 mg/kg, baseline to EOS (day 29)
[15] = 3 mg/kg, baseline to follow-up visit
[16] = CT scan, least squares mean (SE)
[17] = DXA scan, ad hoc analysis, least squares mean (SE)
[18] = lean body mass minus the head, DXA scan, least squares mean (SE)

For “AMG 745: anti-myostatin peptibody: human IgG1 Fc fused at C-terminus via GGGGGAQ linker to peptide SEQ ID NO:311; chain SEQ ID NO:635”, the “dose linearity of pharmacokinetics” value ([1]; 4 weekly SC doses, 0.3 to 3 mg/kg) was “dose-linear pharmacokinetics”, the AUC0-τ [1, 5] was 68.0 µg·h/mL and the Cmax [1, 5] was 502 ng/mL. The tmax ([1]; Week 1 (Dose 1), 0.3 mg/kg SC once-weekly, men with prostate cancer on ADT) was 72.4 h, the AUC0-τ [1, 6] was 321 µg·h/mL and the Cmax [1, 6] was 2380 ng/mL. It also gave a tmax ([1]; Week 1 (Dose 1), 1 mg/kg SC once-weekly, men with prostate cancer on ADT) of 24.3 h, an AUC0-τ [1, 7] of 800 µg·h/mL and a Cmax [1, 7] of 6380 ng/mL. The tmax ([1]; Week 1 (Dose 1), 3 mg/kg SC once-weekly, men with prostate cancer on ADT) was 71.8 h, the “CL/F (apparent serum clearance, Dose/AUC Week 4)” value [1, 8] was 1.96 mL/h/kg and the AUC0-τ [1, 8] was 175 µg·h/mL. The Cmax [1, 8] was 1340 ng/mL, the tmax [1, 8] was 47.8 h and the “CL/F (apparent serum clearance, Dose/AUC Week 4)” value [1, 9] was 1.89 mL/h/kg. The AUC0-τ [1, 9] was 556 µg·h/mL, the Cmax [1, 9] was 4170 ng/mL and the tmax [1, 9] was 24.0 h. For the same substance, the “CL/F (apparent serum clearance, Dose/AUC Week 4)” value [1, 10] was 2.29 mL/h/kg, the AUC0-τ [1, 10] was 1380 µg·h/mL and the Cmax [1, 10] was 10800 ng/mL. For the same substance, the tmax [1, 10] was 24.0 h, the “incidence of anti-AMG 745 (whole molecule) binding antibodies” value [2] was 3% and the “Change from Baseline to End of Study SPPB-Total Score, Mean” value (from here on “Change from Baseline to End … Mean”) [3, 11] was 0.67. The “Change from Baseline to End of Study SPPB-Total Score, Median” value (shortened to “Change from Baseline to End … Median”) [3, 11] was 1.00, the “End of Study SPPB-Total Score, Mean” value [3, 11] was 11.00 and the “End of Study SPPB-Total Score, Median” value [3, 11] was 11.00. The “Follow-up SPPB-Total Score, Mean” value [3, 11] was 11.00, the “Follow-up SPPB-Total Score, Median” value [3, 11] was 11.00 and the “Change from Baseline to End … Mean” value [3, 12] was 1.50. For the same substance, the “Change from Baseline to End … Median” value [3, 12] was 1.50, the “End of Study SPPB-Total Score, Mean” value [3, 12] was 10.33 and the “End of Study SPPB-Total Score, Median” value [3, 12] was 10.00. The “Follow-up SPPB-Total Score, Mean” value [3, 12] was 9.50, the “Follow-up SPPB-Total Score, Median” value [3, 12] was 9.00 and the “Change from Baseline to End … Mean” value [3, 13] was 0.37. For the same substance, the “Change from Baseline to End … Median” value [3, 13] was 0.00, the “End of Study SPPB-Total Score, Mean” value [3, 13] was 10.53 and the “End of Study SPPB-Total Score, Median” value [3, 13] was 11.00. The “Follow-up SPPB-Total Score, Mean” value [3, 13] was 10.68, the “Follow-up SPPB-Total Score, Median” value [3, 13] was 11.00 and the “Change from Baseline to End … Mean” value ([3]; All AMG 745 Subjects (N = 31)) was 0.65. The “Change from Baseline to End … Median” value ([3]; All AMG 745 Subjects (N = 31)) was 1.00, the “End of Study SPPB-Total Score, Mean” value ([3]; All AMG 745 Subjects (N = 31)) was 10.58 and the “End of Study SPPB-Total Score, Median” value ([3]; All AMG 745 Subjects (N = 31)) was 11.00. For the same substance, the “Follow-up SPPB-Total Score, Mean” value ([3]; All AMG 745 Subjects (N = 31)) was 10.52, the “Follow-up SPPB-Total Score, Median” value ([3]; All AMG 745 Subjects (N = 31)) was 11.00 and the “SPPB or 1-RM knee extension, changes from baseline” value ([3]; four doses, no statistical analyses) was “effects were not apparent”. For the same substance, the “percent change in lean body mass, least squares mean (SE)” value ([4]; 3 mg/kg weekly ×4, baseline to EOS (day 29)) was 1.5% (0.5%), the “lower extremity muscle size percent change” value [4, 14] was 1.2% (0.7%) and the “percent change in fat body mass” value [4, 14] was −0.7% (0.2%). The “fat body mass, between-group difference vs placebo” value ([4]; 3 mg/kg, baseline to EOS (day 29), p=0.005) was −1.0% (0.3%), the “lower extremity muscle size, between-group difference vs placebo” value ([4]; 3 mg/kg, baseline to EOS (day 29), p=0.065) was 1.8% (1.0%) and the “lower extremity muscle size percent change” value [4, 15] was 2.7% (0.7%). The “percent change in fat body mass” value [4, 15] was −0.8% (0.3%), the “lower extremity muscle size, between-group difference vs placebo” value ([4]; 3 mg/kg, baseline to follow-up visit, p=0.007) was 2.8% (1.0%) and the “percent change in lean body mass, least squares mean (SE)” value ([4]; 3 mg/kg, follow-up visit 1 month after day 29) was 1.9% (0.5%). The “Lower-extremity Muscle Size, Between-group difference in percent change, Baseline to Follow-up Visit [Day 58]” value ([4]; AMG 745 vs placebo, CT, least squares mean (SE), p value 0.007) was 2.8% (1.0%), the “Lower-extremity Muscle Size, Between-group difference in percent change, Baseline to EOS [Day 29]” value ([4]; AMG 745 vs placebo, CT, least squares mean (SE), p value 0.065) was 1.8% (1.0%) and the “Whole Body Fat, Between-group difference in percent change, Baseline to EOS [Day 29]” value ([4]; AMG 745 vs placebo, DXA, ad hoc, least squares mean (SE), p value 0.005) was −1.0% (0.3%). The “Whole Body Fat, Between-group difference in percent change, Baseline to Follow-up Visit [Day 58]” value ([4]; AMG 745 vs placebo, DXA, ad hoc, least squares mean (SE), p value 0.068) was −0.7% (0.4%), the “Lean Body Mass, Between-group difference in percent change, Baseline to EOS [Day 29]” value ([4]; AMG 745 vs placebo, DXA, least squares mean (SE), p value 0.008) was 2.2% (0.8%) and the “Lean Body Mass, Between-group difference in percent change, Baseline to Follow-up Visit [Day 58]” value ([4]; AMG 745 vs placebo, DXA, least squares mean (SE), p value 0.023) was 1.7% (0.7%). The “Lower-extremity Muscle Size, Percent Change From Baseline to EOS [Day 29]” value [4, 16] was 1.2% (0.7%), the “Lower-extremity Muscle Size, Percent Change From Baseline to Follow-up Visit [Day 58]” value [4, 16] was 2.7% (0.7%) and the “Whole Body Fat, Percent Change From Baseline to EOS [Day 29]” value [4, 17] was −0.7% (0.2%). For the same substance, the “Whole Body Fat, Percent Change From Baseline to Follow-up Visit [Day 58]” value [4, 17] was −0.8% (0.3%), the “Lean Body Mass, Percent Change From Baseline to EOS [Day 29]” value [4, 18] was 1.5% (0.5%) and the “Lean Body Mass, Percent Change From Baseline to Follow-up Visit [Day 58]” value [4, 18] was 1.9% (0.5%).
